Columns and labels:
[1] = molecular target: KRAS (G12D)::CRAF protein::protein interaction (Homo sapiens (Human), UniProt P01116, G12D); assay: KRAS TR-FRET assay (KRAS G12D::CRAF, GTP); type: binding
Procedure: (§1) This assay measures the inhibitory effect of compounds on KRAS::CRAF protein::protein interactions in the presence of GTP using Time-resolved fluorescence energy transfer (TR-FRET).
(§2) The following wildtype or mutant alleles of KRAS and CRAF protein have been used at the given concentrations:
KRAS (G12D) 1-169, N-terminal 6His-tag, C-terminal avi-tag (Xtal BioStructures, Inc.); final assay concentration 15 nM,
(§3) CRAF Ras binding domain, GST-tag, TEV cleavage site (Boehringer Ingelheim in house protein prep); final assay concentration 15 nM.
(§4) Test compounds dissolved in DMSO were dispensed onto assay plates (Proxiplate 384 PLUS, white, PerkinElmer; 6008289) using an Access Labcyte Workstation with the Labcyte Echo 55x. For the chosen highest assay concentration of 100 μM, 150 nl of compound solution was transferred from a 10 mM DMSO compound stock solution. A series of eleven fivefold dilutions per compound was transferred to the assay plate, compound dilutions were tested in duplicates. DMSO was added as backfill to a total volume of 150 nl.
(§5) The assay runs on a fully automated robotic system. To 150 nl of compound dilution 15 μl of a mix including the respective KRAS allele, CRAF (e.g. KRAS (G12D)::CRAF; final assay concentrations see above), GTP nucleotide (Sigma G8877; final assay concentration 10 μM), Lance Eu—W1024 labeled Streptavidin (PerkinElmer, Cat No AD0063; final assay concentration 1.5 nM) and Anti-GST surelight APC (PerkinElmer, Cat No AD0059G; final assay concentration 30 nM) in assay buffer (1×PBS, 0.1% BSA, 0.05% Tween 20) are added into columns 1-23 and 15 μL of the solution without the respective KRAS allele were added to row 24.
(§6) Plates are kept at room temperature in a darkened incubator. After 60 minutes incubation time the signal is measured in a PerkinElmer Envision HTS Multilabel Reader using the TR-FRET LANCE Ultra specs from PerkinElmer.
(§7) Each plate contains 16 wells of a negative control (diluted DMSO instead of test compound; w respective KRAS allele; column 23) and 16 wells of a positive control (diluted DMSO instead of test compound; w/o respective KRAS allele; column 24).
(§8) IC50 values were calculated and analyzed with Boehringer Ingelheim's MEGALAB 50 application using a 4 parametric logistic model.
(§9) Tables of example compounds disclosed herein contain IC50 values determined using the above assays (see Table 44).

[2] = molecular target: KRAS (G12V)::CRAF protein::protein interaction (Homo sapiens (Human), UniProt P01116, C118S/G12V); assay: KRAS TR-FRET assay (KRAS G12V::CRAF, GTP); type: binding
KRAS (G12V)::CRAF protein::protein interaction, sequence (P01116 other isoform, or with tags, fused parts or gaps G12V/C118S): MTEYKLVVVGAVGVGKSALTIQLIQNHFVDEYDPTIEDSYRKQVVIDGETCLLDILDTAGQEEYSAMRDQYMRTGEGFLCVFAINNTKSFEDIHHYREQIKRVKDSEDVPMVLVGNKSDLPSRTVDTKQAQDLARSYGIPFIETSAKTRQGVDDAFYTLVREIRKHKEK
Procedure: as §1, §2
KRAS (G12V) 1-169, C118S, N-terminal 6His-tag, C-terminal avi-tag (Boehringer Ingelheim in house protein prep); final assay concentration 15 nM.
as §3, §4, §5, §6, §7, §8, §9

[3] = molecular target: KRAS (WT)::CRAF protein::protein interaction (Homo sapiens (Human), UniProt P01116); assay: KRAS TR-FRET assay (KRAS WT::CRAF, GTP); type: binding
KRAS (WT)::CRAF protein::protein interaction, sequence (P01116 other isoform, or with tags, fused parts or gaps): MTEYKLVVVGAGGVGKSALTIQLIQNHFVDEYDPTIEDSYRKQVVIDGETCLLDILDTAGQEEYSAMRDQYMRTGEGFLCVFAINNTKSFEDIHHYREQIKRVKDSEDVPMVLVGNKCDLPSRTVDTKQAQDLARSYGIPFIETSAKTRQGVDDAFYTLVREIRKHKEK
Procedure: as §1, §2
KRAS (WT) 1-169, N-terminal 6His-tag, C-terminal avi-tag (Boehringer Ingelheim in house protein prep); final assay concentration 15 nM.
as §3, §4, §5, §6, §7, §8, §9

[4] = Caco-2 assay (permeability and efflux ratio); type: in vitro ADME; conditions: human; for Papp A→B at 90 min, 10 μM: Caco-2 apical to basolateral permeability, pH 7.4, read-out: Caco PappAB; for efflux ratio at 90 min, 10 μM: pH 7.4, Caco-2 efflux ratio PappBA/PappAB, read-out: Caco ER
Procedure: The assay provides information on the potential of a compound to pass the cell membrane, on the extent of oral absorption as well as on whether the compound is actively transported by uptake and/or efflux transporters. Permeability measurements across polarized, confluent Caco-2 cell monolayers grown on permeable filter supports (Corning, catalog #3391) are used. 10 μM test compound solution in assay buffer (128.13 mM NaCl, 5.36 mM KCl, 1 mM MgSO4, 1.8 mM CaCl2), 4.17 mM NaHCO3, 1.19 mM Na2HPO4, 0.41 mM NaH2PO4, 15 mM 2-[4-(2-hydroxyethyl)piperazin-1-yl]ethanesulfonic acid (HEPES), 20 mM glucose, pH 7.4) was added to the donor compartment of the cell chamber containing a monolayer of Caco-2 cells in between the donor and the receiver compartment. The receiver and donor compartments contain 0.25% bovine serum albumine (BSA) in assay buffer. Passive diffusion and/or active transport of compounds across the monolayer is measured in both apical to basolateral (a-b) and basolateral to apical (b-a) direction. a-b permeability (PappAB) represents drug absorption from the intestine into the blood and b-a permeability (PappBA) drug secretion from the blood back into the intestine via both passive permeability as well as active transport mechanisms mediated by efflux and uptake transporters that are expressed on the Caco-2 cells. After a pre-incubation of 25-30 min at 37° C., at predefined time points (0, 30, 60 and 90 min), samples were taken from the receiver and donor compartment, respectively. Concentrations of test compounds in samples were measured by HPLC/MS/MS, samples from the donor compartment were diluted 1:50 (v:v) with assay buffer, samples from receiver compartment were measured without dilution.
Apparent permeabilities in a-b (PappAB) and b-a (PappBA) directions are calculated according to the formula:
[formula] • Vrec [mL]: buffer volume in receiver compartment • Cdon [μmol/mL]: concentration of test compound in donor compartment at t=0 • ΔCrec: difference between concentrations of test compound in receiver compartment at start and end of incubation time • Δt: Incubation time • Vrec·ΔCrec/Δt [μmol/min]: Amount of compound transferred to receiver compartment per time • A [cm^2]: filter surface
Caco-2 efflux ratios (ER) are calculated as the ratio of PappBA/PappAB.

KRAS (G12D)::CRAF protein::protein interaction, sequence (P01116 other isoform, or with tags, fused parts or gaps G12D): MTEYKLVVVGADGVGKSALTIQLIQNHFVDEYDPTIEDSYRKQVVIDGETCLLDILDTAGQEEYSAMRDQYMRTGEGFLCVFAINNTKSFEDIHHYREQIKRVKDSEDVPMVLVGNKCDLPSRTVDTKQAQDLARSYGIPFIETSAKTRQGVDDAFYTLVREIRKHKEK

Row | SMILES | IC50 [1] [nM] | IC50 [2] [nM] | IC50 [3] [nM] | Papp A→B at 90 min, 10 μM [4] [×10⁻⁶ cm/s] | efflux ratio at 90 min, 10 μM [4]
1 | C[C@H](Oc1nc(-c2noc3c2CCC[C@@]32CCCc3sc(N)c(C#N)c32)nc2c1CCCO[C@]21CCOC1)[C@@H]1CCCN1C [II-10] | 128 | 38 | 56 |  | 
2 | C[C@H](Oc1nc(-c2onc3c2CCC[C@@]32CCCc3sc(N)c(C#N)c32)nc2c1n(C)c(=O)n2C1COC1)[C@@H]1CCCN1C [I-24] | 565 | 153 | 749 |  | 
3 | C[C@H](Oc1nc(-c2noc3c2CCC[C@@]32CCCc3sc(N)c(C#N)c32)nc2c1n(C)c(=O)n2[C@@H]1CCOC1)[C@@H]1CCCN1C [II-2] | 32 | 24 | 52 |  | 
4 | C[C@H](Oc1nc(-c2noc3c2CCC[C@@]32CCCc3sc(N)c(C#N)c32)nc2c1CN(C1COC1)C[C@]21CCOC1)[C@@H]1CC[C@H](C)N1C [II-17] |  |  |  | 16 | 3.4
5 | CO[C@@H]1C[C@@H]([C@H](C)Oc2nc(-c3noc4c3CCC[C@@]43CCCc4sc(N)c(C#N)c43)nc3c2COC[C@]32CCOC2)N(C)C1 [II-11] |  |  |  | 27 | 0.9
6 | C[C@H](Oc1nc(-c2onc3c2CCC[C@@]32CCCc3sc(N)c(C#N)c32)nc2c1n(C)c(=O)n2[C@@H]1CCOC1)[C@@H]1C[C@H](F)CN1C [I-27] | 410 | 196 | 462 |  | 
7 | C[C@H](Oc1nc(-c2onc3c2CCC[C@@]32CCCc3sc(N)c(C#N)c32)nc2c1CN(C1COC1)C[C@]21CCOC1)[C@@H]1CCCN1C [I-56] |  |  |  | 8.4 | 7.1
8 | CO[C@H]1CCN(C)[C@@H]1[C@H](C)Oc1nc(-c2onc3c2CCC[C@@]32CCCc3sc(N)c(C#N)c32)nc2c1n(C)c(=O)n2[C@@H]1CCOC1 [I-23] | 52 | 25 | 59 |  | 
9 | CO[C@H]1CCN(C)[C@@H]1[C@H](C)Oc1nc(-c2onc3c2CCC[C@@]32CCCc3sc(N)c(C#N)c32)nc2c1CN(C1COC1)C[C@]21CCOC1 [I-57] |  |  |  | 35 | 1.3
10 | Cc1cn([C@@H]2CCOC2)c2nc(-c3onc4c3CCC[C@@]43CCCc4sc(N)c(C#N)c43)nc(O[C@@H](C)[C@@H]3CCCN3C)c12 [I-41] | 362 | 405 | 1830 |  | 
11 | C[C@H](Oc1nc(-c2onc3c2CCC[C@@]32CCCc3sc(N)c(C#N)c32)nc2c1n(C)c(=O)n2[C@H]1CCCOC1)[C@@H]1CCCN1C [I-11] | 460 | 315 | 338 |  | 
12 | CO[C@@H]1C[C@@H]([C@H](C)Oc2nc(-c3noc4c3CCC[C@@]43CCCc4sc(N)c(C#N)c43)nc3c2n(C)c(=O)n3[C@@]23COC[C@@H]2C3)N(C)C1 [II-6] |  |  |  | 13 | 4.3
13 | C[C@H](Oc1nc(-c2onc3c2CCC[C@@]32CCCc3sc(N)c(C#N)c32)nc2c1n(C)c(=O)n2[C@@H]1CCOC1)[C@@H]1C[C@@H]2C[C@@H]2N1C [I-28] | 434 | 241 | 541 |  | 
